Data reported in PMC10180488, “Novel Derivatives of Eugenol as a New Class of PPARγ Agonists in Treating Inflammation: Design, Synthesis, SAR Analysis and In Vitro Anti-Inflammatory Activity” (Molecules, 2023).

Experiments:
[1] = tested on: human red blood cells (HRBC); assay: HRBC membrane stabilization method; details: for HRBC membrane stabilization (percentage protection against HRBC lysis): mean ± SD (n = 3)
egg albumin = egg albumin (Gallus gallus, UniProt P01012); assay: Albumin denaturation assay; assay type: biochemical, hen; details: mean ± SD (n = 3), read-out: Percentage inhibition of denaturation of albumin
Method: Inflammation is accompanied by protein denaturation. Tissue protein denaturation is a well-established cause of Inflammatory illnesses. Inflammatory disorders including rheumatoid arthritis, diabetes, and cancer have been linked to the denaturation of proteins. The ability of a substance to stop proteins from becoming denaturized has a role in the prevention of inflammatory disorders. […] Denaturation of proteins is accomplished by keeping the reaction mixture in a water bath at 70 °C for […].
Minor modifications were made to Mizushima and Kobayashi’s and Sakat et al. methodologies. The reaction mixture containing 0.2 mL of egg albumin (from a fresh hen’s egg) is mixed with 2.8 mL of phosphate-buffered saline (PBS, pH 6.4) and 2 mL of synthesized compounds in varying concentrations. The mixture was then heated at 70 °C for 5 min after being incubated at 37 °C for approximately 15–20 min. After cooling, their absorbance was measured at 660 nm spectrometrically. Three duplicates of the experiment were carried out. […] Percentage inhibition = (OD control − OD sample/OD control) × 100

human PPARγ- LBD = molecular target: T1, human PPARγ- LBD (Homo sapiens, UniProt P37231); assay: Lanthascreen TR-FRET PPARγ competitive binding assay; details: for Raw Data / Raw Data - Background: TR-FRET
T1 construct: a mixture of a human PPARγ- LBD labelled with glutathione S-transferase (GST)
T1 sequence (P37231 238-503 limits assumed): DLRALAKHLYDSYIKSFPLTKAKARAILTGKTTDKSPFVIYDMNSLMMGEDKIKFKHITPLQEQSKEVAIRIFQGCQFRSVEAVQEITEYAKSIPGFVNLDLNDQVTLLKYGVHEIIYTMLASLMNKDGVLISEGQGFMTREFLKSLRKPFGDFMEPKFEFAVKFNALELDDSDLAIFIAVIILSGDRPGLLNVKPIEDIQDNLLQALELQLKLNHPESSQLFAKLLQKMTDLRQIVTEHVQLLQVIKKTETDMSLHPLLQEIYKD
Method: Using the Lanthasreen TR-FRET assay, the synthesized compounds were first preliminary tested for the PPARγ binding affinity. […] A chemical under test displaces the tracer from PPAR-LBD, which lowers the TR-FRET ratio and decreases the FRET signal Figure 8 [33].
A multimode low-volume proxy plate reader was used to read the plates after one hour of incubation. Then, a mixture of a human PPARγ- LBD labelled with glutathione S-transferase (GST), a fluorescent small pan-PPAR ligand (FluormoneTM Pan-PPAR Green), and terbium-labeled anti-GST antibody was added.

egg albumin, sequence (P01012 2-386): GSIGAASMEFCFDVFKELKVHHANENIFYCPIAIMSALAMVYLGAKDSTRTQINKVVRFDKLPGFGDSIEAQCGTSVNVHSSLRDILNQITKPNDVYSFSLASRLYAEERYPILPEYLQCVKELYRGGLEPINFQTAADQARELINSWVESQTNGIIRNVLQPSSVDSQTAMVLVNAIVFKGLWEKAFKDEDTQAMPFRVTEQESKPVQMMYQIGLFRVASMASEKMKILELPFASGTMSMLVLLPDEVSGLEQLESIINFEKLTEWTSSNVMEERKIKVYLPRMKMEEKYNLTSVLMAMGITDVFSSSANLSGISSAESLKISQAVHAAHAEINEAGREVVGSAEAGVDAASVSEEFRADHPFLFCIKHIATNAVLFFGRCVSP

`C=CCc1ccc(OCC(=O)Nc2ccccc2Cl)c(OC)c1` [Compound 1f, 2-(4-Allyl-2-methoxyphenoxy)-N-(2-chlorophenyl)acetamide] was tested, and the “HRBC membrane stabilization (percentage protection against HRBC lysis)” value ([1]; 6.25 µM) was 15.17 ± 0.64%, the “HRBC membrane stabilization (percentage protection against HRBC lysis)” value ([1]; 12.5 µM) was 25.09 ± 0.66% and the “HRBC membrane stabilization (percentage protection against HRBC lysis)” value ([1]; 25 µM) was 41.88 ± 0.55%. For the same molecule, the “HRBC membrane stabilization (percentage protection against HRBC lysis)” value ([1]; 50 µM) was 49.50 ± 0.46%, the “HRBC membrane stabilization (percentage protection against HRBC lysis)” value ([1]; 100 µM) was 58.61 ± 0.38% and the “HRBC membrane stabilization (percentage protection against HRBC lysis)” value ([1]; 200 µM) was 73.43 ± 0.36%. The “HRBC membrane stabilization (percentage protection against HRBC lysis)” value ([1]; 400 µM) was 85.79 ± 0.18%, the IC50 ([1]; Homo sapiens, Erythrocyte, read-out: IC50 Values, HRBC membrane stabilization method) was 55 µM and the inhibition at 6.25 µM (egg albumin; 6.25 µM) was 7.74 ± 0.34%. For the same molecule, the inhibition at 12.5 µM (egg albumin; 12.5 µM) was 13.6 ± 0.23%, the inhibition at 25 µM (egg albumin; 25 µM) was 24.4 ± 0.48% and the inhibition at 50 µM (egg albumin; 50 µM) was 31 ± 0.55%. The inhibition at 100 µM (egg albumin; 100 µM) was 43.08 ± 0.43%, the inhibition at 200 µM (egg albumin; 200 µM) was 50% and the inhibition at 400 µM (egg albumin; 400 µM) was 62.41 ± 0.42%. For the same molecule, the IC50 (human PPARγ- LBD; Lanthascreen TR-FRET competitive binding) was 5.15 µM, the “Raw Data” value (human PPARγ- LBD; 0.0000512 µM) was 1.795 RLU and the “Raw Data - Background” value (human PPARγ- LBD; 0.0000512 µM) was 2.02 RLU. The “Raw Data” value (human PPARγ- LBD; 0.000256 µM) was 1.801 RLU, the “Raw Data - Background” value (human PPARγ- LBD; 0.000256 µM) was 2.04 RLU and the “Raw Data” value (human PPARγ- LBD; 0.00128 µM) was 1.764 RLU. For the same molecule, the “Raw Data - Background” value (human PPARγ- LBD; 0.00128 µM) was 2 RLU, the “Raw Data” value (human PPARγ- LBD; 0.0064 µM) was 1.826 RLU and the “Raw Data - Background” value (human PPARγ- LBD; 0.0064 µM) was 2.061 RLU. For the same molecule, the “Raw Data” value (human PPARγ- LBD; 0.032 µM) was 1.766 RLU, the “Raw Data - Background” value (human PPARγ- LBD; 0.032 µM) was 1.99 RLU and the “Raw Data” value (human PPARγ- LBD; 0.16 µM) was 1.711 RLU. For the same molecule, the “Raw Data - Background” value (human PPARγ- LBD; 0.16 µM) was 1.945 RLU, the “Raw Data” value (human PPARγ- LBD; 0.8 µM) was 1.881 RLU and the “Raw Data - Background” value (human PPARγ- LBD; 0.8 µM) was 2.056 RLU. The “Raw Data” value (human PPARγ- LBD; 4 µM) was 1.247 RLU, the “Raw Data - Background” value (human PPARγ- LBD; 4 µM) was 1.542 RLU and the “Raw Data” value (human PPARγ- LBD; 20 µM) was 0.799 RLU. The “Raw Data - Background” value (human PPARγ- LBD; 20 µM) was 0.862 RLU, the “Raw Data” value (human PPARγ- LBD; 100 µM) was 0.7757 RLU and the “Raw Data - Background” value (human PPARγ- LBD; 100 µM) was 0.9427 RLU.
